Experimental data published in BindingDB's records for doi:10.1016/s0960-894x(00)00312-7 (Signal Pharmaceuticals, 2000).

What follows are compounds tested against Protein c-Fos/Transcription factor Jun (Homo sapiens, UniProt P05412+P01100) (assay: Inhibition of AP-1 (activator protein-1) mediated transcriptional activation in Jurkat T-cells).
Chain of Protein c-Fos/Transcription factor Jun (P05412 whole entry): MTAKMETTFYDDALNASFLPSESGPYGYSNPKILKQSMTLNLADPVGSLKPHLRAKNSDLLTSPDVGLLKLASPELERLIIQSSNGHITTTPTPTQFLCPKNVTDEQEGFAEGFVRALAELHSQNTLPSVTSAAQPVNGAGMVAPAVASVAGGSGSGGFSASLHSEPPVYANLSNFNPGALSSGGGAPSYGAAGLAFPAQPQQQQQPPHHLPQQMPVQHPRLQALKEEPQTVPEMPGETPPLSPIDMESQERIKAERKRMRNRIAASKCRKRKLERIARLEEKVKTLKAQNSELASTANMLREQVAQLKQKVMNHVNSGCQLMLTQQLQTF
Chain of Protein c-Fos/Transcription factor Jun (P01100 whole entry): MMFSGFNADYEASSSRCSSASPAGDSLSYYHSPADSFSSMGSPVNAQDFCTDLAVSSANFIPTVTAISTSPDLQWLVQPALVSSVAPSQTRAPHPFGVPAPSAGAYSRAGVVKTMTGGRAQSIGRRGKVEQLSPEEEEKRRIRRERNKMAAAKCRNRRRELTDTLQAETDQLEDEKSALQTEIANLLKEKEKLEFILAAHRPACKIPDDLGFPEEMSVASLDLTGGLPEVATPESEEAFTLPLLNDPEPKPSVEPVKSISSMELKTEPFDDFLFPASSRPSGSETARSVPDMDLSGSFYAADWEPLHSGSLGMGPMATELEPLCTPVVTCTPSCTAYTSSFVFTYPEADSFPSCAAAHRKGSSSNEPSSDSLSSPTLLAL

Compound	IC50 [µM]
CCOC(=O)c1cnc(-n2nc(C)cc2C)nc1NN1C(=O)C=C(C)C1=O [ethyl 2-(3,5-dimethyl-1H-pyrazol-1-yl)-4-(3-methyl-2,5-dioxo-2H-pyrrol-1(5H)-ylamino)pyrimidine-5-carboxylate]	10
CCOC(=O)c1cnc(-c2ccncc2)nc1NN1C(=O)C=C(C)C1=O [ethyl 4-(3-methyl-2,5-dioxo-2H-pyrrol-1(5H)-ylamino)-2-(pyridin-4-yl)pyrimidine-5-carboxylate]	6

The remaining compounds from weak to strong by IC50, led by results:

IC50 [µM]	Compound
4	CCOC(=O)c1cnc(-c2ccccc2)nc1N(C(C)=O)N1C(=O)C=C(C)C1=O [4-[Acetyl-(3-methyl-2,5-dioxo-2,5-dihydro-pyrrol-1-yl)-amino]-2-phenyl-pyrimidine-5-carboxylic acid ethyl ester]
2	CCOC(=O)c1cnc(-c2cc(Cl)nc(Cl)c2)nc1NN1C(=O)C=C(C)C1=O [ethyl 2-(2,6-dichloropyridin-4-yl)-4-(3-methyl-2,5-dioxo-2H-pyrrol-1(5H)-ylamino)pyrimidine-5-carboxylate]
0.7	CCOC(=O)c1cnc(-c2cccc(Br)c2)nc1NN1C(=O)C=C(C)C1=O [2-(3-Bromo-phenyl)-4-(3-methyl-2,5-dioxo-2,5-dihydro-pyrrol-1-ylamino)-pyrimidine-5-carboxylic acid ethyl ester]
